# In ChEMBL document CHEMBL5260859, “Discovery and structure-activity relationship study of 2-piperazinyl-benzothiazole derivatives as potent and selective PPARδ agonists” (Bioorg Med Chem, 2023):
# pEC50: −log10 of the molar value.
# Key:
# [1] = target: T1, Peroxisome proliferator-activated receptor delta (Homo sapiens, UniProt Q03181); assay: Agonist activity at Gal4-fused human PPAR-delta ligand binding domain expressed in CHO-K1 cells assessed as receptor transactivation incubated for 24 to 48 hrs by luciferase reporter gene assay; assay type: cell-based
# T1 sequence (Q03181 whole entry): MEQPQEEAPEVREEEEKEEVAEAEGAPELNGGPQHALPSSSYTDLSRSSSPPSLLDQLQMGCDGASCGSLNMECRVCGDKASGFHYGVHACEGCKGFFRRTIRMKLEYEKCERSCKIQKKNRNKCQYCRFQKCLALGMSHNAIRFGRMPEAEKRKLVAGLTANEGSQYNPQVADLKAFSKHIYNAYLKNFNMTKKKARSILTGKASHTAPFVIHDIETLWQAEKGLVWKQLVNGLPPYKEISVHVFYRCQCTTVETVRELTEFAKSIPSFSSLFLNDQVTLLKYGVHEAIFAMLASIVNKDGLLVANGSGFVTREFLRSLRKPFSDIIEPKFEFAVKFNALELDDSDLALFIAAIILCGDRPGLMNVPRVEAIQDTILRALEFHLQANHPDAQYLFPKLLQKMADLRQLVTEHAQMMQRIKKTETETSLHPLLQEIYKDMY
# [2] = target: T2, Peroxisome proliferator-activated receptor delta (Homo sapiens) (UniProt Q03181); assay: Agonist activity at Gal4-fused human PPAR-delta ligand binding domain expressed in CHO-K1 cells assessed as receptor transactivation incubated for 24 to 48 hrs by luciferase reporter gene assay relative to control; assay type: cell-based; details: time lower 24.0 hrs, time upper […]
# T2 sequence (whole entry): T1 sequence (Q03181 whole entry)
# [3] = target: T3, Peroxisome proliferator-activated receptor delta (Mus musculus, UniProt P35396); assay: Agonist activity at Gal4-fused mouse PPAR-delta ligand binding domain expressed in CHO-K1 cells assessed as receptor transactivation incubated for 24 to 48 hrs by luciferase reporter gene assay; assay type: cell-based
# T3 sequence (P35396 whole entry): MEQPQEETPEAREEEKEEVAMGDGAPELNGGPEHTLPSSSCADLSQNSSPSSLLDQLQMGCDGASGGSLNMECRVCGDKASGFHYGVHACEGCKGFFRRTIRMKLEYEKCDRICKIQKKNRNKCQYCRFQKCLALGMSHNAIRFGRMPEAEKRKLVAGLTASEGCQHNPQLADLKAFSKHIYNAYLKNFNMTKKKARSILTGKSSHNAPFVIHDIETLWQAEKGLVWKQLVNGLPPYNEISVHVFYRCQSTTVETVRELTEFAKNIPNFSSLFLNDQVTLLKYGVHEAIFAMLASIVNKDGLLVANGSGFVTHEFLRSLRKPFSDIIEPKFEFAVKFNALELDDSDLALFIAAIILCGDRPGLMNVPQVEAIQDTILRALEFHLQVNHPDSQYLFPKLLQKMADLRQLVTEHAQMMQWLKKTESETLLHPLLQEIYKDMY
# [4] = target: T4, Peroxisome proliferator-activated receptor delta (Mus musculus) (UniProt P35396); assay: Agonist activity at Gal4-fused mouse PPAR-delta ligand binding domain expressed in CHO-K1 cells assessed as receptor transactivation incubated for 24 to 48 hrs by luciferase reporter gene assay relative to control; assay type: cell-based; details: time lower 24.0 hrs, time upper […]
# T4 sequence (whole entry): T3 sequence (P35396 whole entry)
# [5] = target: T5, Peroxisome proliferator-activated receptor alpha (Mus musculus, UniProt P23204); assay: Agonist activity at Gal4-fused mouse PPAR-alpha ligand binding domain expressed in CHO-K1 cells assessed as receptor transactivation incubated for 24 to 48 hrs by luciferase reporter gene assay; assay type: cell-based
# T5 sequence (P23204 whole entry): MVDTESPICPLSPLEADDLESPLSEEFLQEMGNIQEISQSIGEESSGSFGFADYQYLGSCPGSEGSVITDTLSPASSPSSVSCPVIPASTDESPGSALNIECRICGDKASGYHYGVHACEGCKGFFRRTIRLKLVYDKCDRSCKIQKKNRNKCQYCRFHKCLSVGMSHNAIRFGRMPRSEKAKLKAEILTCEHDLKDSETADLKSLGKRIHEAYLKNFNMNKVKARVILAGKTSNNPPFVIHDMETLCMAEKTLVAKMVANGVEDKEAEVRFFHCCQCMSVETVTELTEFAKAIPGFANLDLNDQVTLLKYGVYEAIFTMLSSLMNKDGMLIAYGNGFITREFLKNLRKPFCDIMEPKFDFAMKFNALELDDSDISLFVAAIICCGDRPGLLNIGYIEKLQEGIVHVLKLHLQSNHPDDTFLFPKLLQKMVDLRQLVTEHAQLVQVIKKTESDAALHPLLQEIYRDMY
# [6] = target: T6, Peroxisome proliferator-activated receptor alpha (Mus musculus) (UniProt P23204); assay: Agonist activity at Gal4-fused mouse PPAR-alpha ligand binding domain expressed in CHO-K1 cells assessed as receptor transactivation incubated for 24 to 48 hrs by luciferase reporter gene assay relative to control; assay type: cell-based; details: time lower 24.0 hrs, time upper […]
# T6 sequence (whole entry): T5 sequence (P23204 whole entry)
# [7] = AUC in rat at 0.5 mg/kg, iv; assay type: ADME, organism-based; parameters: dose 0.5 mg/kg, route iv; details: in vivo
# [8] = Clearance in rat at 0.5 mg/kg, iv; assay type: ADME, organism-based; details: in vivo
# [9] = Half life in rat at 0.5 mg/kg, iv; assay type: ADME, organism-based; details: in vivo
# [10] = AUC in rat at 1 mg/kg, po; assay type: ADME, organism-based; parameters: dose 1 mg/kg, route po; details: in vivo
# [11] = Cmax in rat at 1 mg/kg, po; assay type: ADME, organism-based; parameters: dose 1 mg/kg, route po; details: in vivo
# [12] = Oral bioavailability in rat at 1 mg/kg; assay type: ADME, organism-based; details: in vivo
# [13] = system: Mus musculus; assay: Antihypercholesterolemic activity against hApoB100/hCETP-dTg hypercholesterolemic mouse model assessed as serum HDL-C level at 3 mg/kg, po administered once daily for 8 days; assay type: functional; details: time 8 day
# [14] = system: Mus musculus; assay: Antihypercholesterolemic activity against hApoB100/hCETP-dTg hypercholesterolemic mouse model assessed as serum total cholesterol level at 3 mg/kg, po administered once daily for 8 days; assay type: functional; details: time 8 day
# [15] = system: Mus musculus; assay: Antihypercholesterolemic activity against hApoB100/hCETP-dTg hypercholesterolemic mouse model assessed as serum non-HDL-C level at 3 mg/kg, po administered once daily for 8 days; assay type: functional; details: time 8 day
# [16] = target: T7, Peroxisome proliferator-activated receptor gamma (Mus musculus, UniProt P37238); assay: Agonist activity at Gal4-fused mouse PPAR-gamma ligand binding domain expressed in CHO-K1 cells assessed as receptor transactivation incubated for 24 to 48 hrs by luciferase reporter gene assay; assay type: cell-based
# T7 sequence (P37238 whole entry): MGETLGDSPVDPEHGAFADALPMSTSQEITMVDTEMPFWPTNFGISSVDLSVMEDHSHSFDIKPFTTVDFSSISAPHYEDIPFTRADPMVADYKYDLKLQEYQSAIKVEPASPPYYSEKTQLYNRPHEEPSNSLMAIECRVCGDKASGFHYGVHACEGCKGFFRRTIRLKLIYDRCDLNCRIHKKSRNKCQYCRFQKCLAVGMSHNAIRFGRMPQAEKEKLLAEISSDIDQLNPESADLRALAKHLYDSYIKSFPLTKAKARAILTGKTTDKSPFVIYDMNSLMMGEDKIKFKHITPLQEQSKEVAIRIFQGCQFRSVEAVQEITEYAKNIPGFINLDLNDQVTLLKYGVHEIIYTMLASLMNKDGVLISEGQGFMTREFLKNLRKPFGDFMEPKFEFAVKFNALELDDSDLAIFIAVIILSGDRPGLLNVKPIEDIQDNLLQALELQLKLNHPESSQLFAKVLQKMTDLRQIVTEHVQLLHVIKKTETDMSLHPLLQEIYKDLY
# [17] = target: T8, Peroxisome proliferator-activated receptor alpha (Homo sapiens) (UniProt Q07869); assay: Agonist activity at Gal4-fused human PPAR-alpha ligand binding domain expressed in CHO-K1 cells assessed as receptor transactivation incubated for 24 to 48 hrs by luciferase reporter gene assay relative to control; assay type: cell-based; details: time lower 24.0 hrs, time upper […]
# T8 sequence (whole entry): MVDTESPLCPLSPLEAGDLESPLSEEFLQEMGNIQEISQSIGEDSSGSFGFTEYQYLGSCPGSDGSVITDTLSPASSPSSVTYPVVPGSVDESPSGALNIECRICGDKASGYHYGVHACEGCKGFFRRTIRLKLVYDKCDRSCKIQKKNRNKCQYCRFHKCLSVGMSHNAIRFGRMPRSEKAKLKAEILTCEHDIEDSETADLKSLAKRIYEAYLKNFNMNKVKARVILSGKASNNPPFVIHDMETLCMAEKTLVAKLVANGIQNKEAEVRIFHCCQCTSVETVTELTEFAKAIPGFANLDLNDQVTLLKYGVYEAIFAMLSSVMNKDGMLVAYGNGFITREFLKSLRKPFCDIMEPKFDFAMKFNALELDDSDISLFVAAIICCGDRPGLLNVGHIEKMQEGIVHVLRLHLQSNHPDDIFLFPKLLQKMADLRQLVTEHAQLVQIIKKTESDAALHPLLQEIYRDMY
# [18] = organism: Homo sapiens; assay: Selectivity ratio of EC50 for agonist activity at Gal4-fused human PPAR-alpha ligand binding domain expressed in CHO-K1 cells to EC50 for agonist activity at Gal4-fused human PPAR-delta ligand binding domain expressed in CHO-K1 cells; assay type: cell-based
# [19] = organism: Mus musculus; assay: Selectivity ratio of EC50 for agonist activity at Gal4-fused mouse PPAR-alpha ligand binding domain expressed in CHO-K1 cells to EC50 for agonist activity at Gal4-fused mouse PPAR-delta ligand binding domain expressed in CHO-K1 cells; assay type: cell-based
# [20] = organism: Mus musculus; assay: Selectivity ratio of EC50 for agonist activity at Gal4-fused mouse PPAR-gamma ligand binding domain expressed in CHO-K1 cells to EC50 for agonist activity at Gal4-fused mouse PPAR-delta ligand binding domain expressed in CHO-K1 cells; assay type: cell-based
SMILES,pEC50 [1],Emax [2] [%],pEC50 [3],Emax [4] [%],pEC50 [5],Emax [6] [%],AUC [7] [µg·h/mL],clearance [8] [L/h/kg],half-life [9] [h],AUC [10] [µg·h/mL],Cmax [11] [µg/mL],bioavailability [12] [%],Activity [13] [%],Activity [14] [%],Activity [15] [%],pEC50 [16],Emax [17] [%],Ratio EC50 [18],Ratio EC50 [19],Ratio EC50 [20]
Cc1cc(CC(=O)O)cc(CN2CCN(c3nc4ccc(C(F)(F)F)cc4s3)[C@@H](C(C)C)C2)c1,8.39,18.6,7.92,25,5.70,10.3,26.7,0.0186,9.5,45.9,2.05,85.8,188,72,56,–,–,–,–,–
C[C@H]1CN(c2nc3ccc(C(F)(F)F)cc3s2)CCN1CCOc1cc(CC(=O)O)ccc1Cl,–,–,8.16,34,5.57,7.2,0.19,2.74,1.4,0.101,0.011,26.4,113,76,80,6.62,–,–,–,–
Cc1cc(CC(=O)O)cc(CN2CCN(c3nc4ccc(C(F)(F)F)cc4s3)[C@H](CC(C)C)C2)c1,8.37,17.5,8.16,24.8,–,1.4,5.68,0.0882,6.7,7.15,0.895,62.9,145,83,75,–,1.6,–,–,–
CC[C@H]1CN(c2nc3ccc(C(F)(F)F)cc3s2)CCN1CCOc1cc(CC(=O)O)ccc1Cl,–,–,8.21,31.7,5.60,8,0.399,1.29,2.7,0.151,0.01,18.9,156,94,82,6.62,–,–,–,–
Cc1ccc(CC(=O)O)cc1OCCC1CCN(c2nc3ccc(Cl)cc3s2)CC1,–,16.2,–,20,5.95,15.5,–,–,–,–,–,–,–,–,–,–,8,39,16,10
